Results as given in ChEMBL document CHEMBL4342403, “New evolutions in the BACE1 inhibitor field from 2014 to 2018” (Bioorg Med Chem Lett, 2019).

Tests used:
Homo sapiens [1] = test: In vivo inhibition of BACE1 in human assessed as reduction in amyloidbeta40 level in CSF at 30 mg administered once daily after 14 days relative to baseline; assay type: functional
Homo sapiens [2] = test: In vivo inhibition of BACE1 in human assessed as reduction in amyloidbeta40 level in CSF at 50 mg administered once daily after 14 days relative to baseline; assay type: functional
Homo sapiens [3] = test: In vivo inhibition of BACE1 in human assessed as reduction in amyloidbeta40 level in CSF at 90 mg administered once daily after 14 days relative to baseline; assay type: functional
Beta-secretase 1 [4] = molecular target: T1, Beta-secretase 1 (Homo sapiens, UniProt P56817); test: Inhibition of BACE1 (unknown origin) expressed in CHO-K1 cells using Biotin-GLTNIKTEEISEISYAEVEFR-C[Oregon Green]KK-OH as substrate incubated for 3 hrs by fluorescence polarization
Beta-secretase 1 [5] = molecular target: T1, Beta-secretase 1; test: Inhibition of BACE1 in human H4 cells transfected with APP695 assessed as […] incubated for 18 hrs by ELISA; assay type: cell-based
[6] = Dissociation constant, pKa of the compound; assay type: physicochemical
[7] = molecular target: Voltage-gated inwardly rectifying potassium channel KCNH2 (Homo sapiens, UniProt Q12809); test: Inhibition of human ERG expressed in CHO cells at holding potential of -80 mV by patch clamp method; assay type: cell-based
P-glycoprotein (ABCB1) = P-glycoprotein (ABCB1) (Homo sapiens, UniProt P08183); test: Substrate activity at P-glycoprotein (unknown origin) in MDCK-MDR1 cells assessed as efflux ratio; assay type: ADME, cell-based
Beta-secretase 1 [8] = molecular target: T1, Beta-secretase 1; test: Inhibition of human BACE1 expressed in HEK293 cells incubated for 16 to 24 hrs by FRET assay; assay type: cell-based
Beta-secretase 1 [9] = molecular target: T1, Beta-secretase 1; test: Inhibition of BACE1 in human SH-SY5Y cells transfected with APP695 assessed as reduction in amyloidbeta (1 to 40 residues) incubated for 24 hrs by sandwich ELlSA; assay type: cell-based
Beta-secretase 2 [10] = molecular target: T2, Beta-secretase 2 (Homo sapiens, UniProt Q9Y5Z0); test: Inhibition of human BACE2 expressed in HEK293 cells incubated for 16 to 24 hrs by FRET assay; assay type: cell-based
T2 sequence (Q9Y5Z0 whole entry): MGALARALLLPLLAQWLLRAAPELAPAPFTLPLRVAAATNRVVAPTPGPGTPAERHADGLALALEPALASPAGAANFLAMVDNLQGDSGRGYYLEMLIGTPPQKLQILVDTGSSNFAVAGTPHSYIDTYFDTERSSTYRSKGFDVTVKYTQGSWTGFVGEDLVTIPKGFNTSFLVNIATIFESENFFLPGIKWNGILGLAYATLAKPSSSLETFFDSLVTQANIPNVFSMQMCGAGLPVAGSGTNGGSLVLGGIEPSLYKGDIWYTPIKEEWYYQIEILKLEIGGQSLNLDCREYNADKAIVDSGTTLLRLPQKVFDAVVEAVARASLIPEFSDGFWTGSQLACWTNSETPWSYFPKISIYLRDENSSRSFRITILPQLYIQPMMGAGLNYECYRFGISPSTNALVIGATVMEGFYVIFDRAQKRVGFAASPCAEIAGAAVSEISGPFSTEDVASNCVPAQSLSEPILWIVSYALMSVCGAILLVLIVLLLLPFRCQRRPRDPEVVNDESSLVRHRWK

Beta-secretase 1 [11] = molecular target: T1, Beta-secretase 1; test: Inhibition of BACE1 (unknown origin)
Beta-secretase 1 [12] = molecular target: T1, Beta-secretase 1; test: Inhibition of BACE1 (unknown origin) by cell-based assay
Beta-secretase 2 [13] = molecular target: T2, Beta-secretase 2; test: Inhibition of BACE2 (unknown origin)
Canis familiaris [14] = test: In vivo inhibition of BACE1 in dog assessed as reduction in amyloidbeta level in CSF at 1 mg/kg, po measured at 24 hrs post dose relative to control; assay type: functional; conditions: Canis lupus familiaris
Canis familiaris [15] = test: In vivo inhibition of BACE1 in dog assessed as reduction in amyloidbeta level in CSF at 1 mg/kg, po measured at 48 hrs post dose relative to control; assay type: functional; conditions: Canis lupus familiaris
Beta-secretase 1 [16] = molecular target: T1, Beta-secretase 1; test: Inhibition of human BACE1 using biotin-XSEVNLDAEFRHDSGC-Eu as substrate incubated for 3 hrs by fluorescence method
Mus musculus = test: In vivo inhibition of BACE1 in C57B1/6J mouse assessed as reduction in amyloidbeta 40 level in brain at 30 mg/kg, po measured at 4 hrs post dose by AlphaLISA relative to control; assay type: functional
Homo sapiens [17] = test: In vivo inhibition of BACE1 in human assessed as reduction in amyloidbeta40 level in CSF at 25 mg relative to control; assay type: functional
Homo sapiens [18] = test: In vivo inhibition of BACE1 in human assessed as reduction in amyloidbeta40 level in CSF at 50 mg relative to control; assay type: functional
Homo sapiens [19] = test: In vivo inhibition of BACE1 in human assessed as reduction in amyloidbeta40 level in CSF at 100 mg relative to control; assay type: functional
Homo sapiens [20] = test: In vivo inhibition of BACE1 in human assessed as reduction in amyloidbeta40 level in CSF at 200 mg relative to control; assay type: functional
Beta-secretase 1 [21] = molecular target: T1, Beta-secretase 1; test: Inhibition of BACE1 (unknown origin) incubated for 120 mins using APP swedish mutant as substrate by FRET assay
Beta-secretase 2 [22] = molecular target: T2, Beta-secretase 2; test: Inhibition of BACE2 (unknown origin) incubated for 450 mins using APP swedish mutant as substrate by FRET assay
Canis familiaris [23] = test: In vivo inhibition of BACE1 in Beagle dog assessed as reduction in amyloidbeta (1 to 42 residues) at 0.16 mg/kg, po measured at 8 hrs post dose relative to baseline; assay type: functional; conditions: Canis lupus familiaris
Canis familiaris [24] = test: In vivo inhibition of BACE1 in Beagle dog assessed as reduction in amyloidbeta (1 to 42 residues) at 0.31 mg/kg, po measured at 8 hrs post dose relative to baseline; assay type: functional; conditions: Canis lupus familiaris
Canis familiaris [25] = test: In vivo inhibition of BACE1 in Beagle dog assessed as reduction in amyloidbeta (1 to 42 residues) at 1.25 mg/kg, po measured at 8 hrs post dose relative to baseline; assay type: functional; conditions: Canis lupus familiaris
Beta-secretase 1 [26] = molecular target: T1, Beta-secretase 1; test: Inhibition of BACE1 in human SK-N-BE(2) cells expressing human APP695 assessed as reduction in amyloidbeta (1 to 42 residues) level incubated for 18 hrs by sandwich ELISA; assay type: cell-based
Homo sapiens [27] = test: In vivo inhibition of BACE1 in human assessed as reduction in amyloidbeta40 level in CSF at 85 mg, qd administered for 3 months relative to control; assay type: functional

T1 sequence (P56817 whole entry): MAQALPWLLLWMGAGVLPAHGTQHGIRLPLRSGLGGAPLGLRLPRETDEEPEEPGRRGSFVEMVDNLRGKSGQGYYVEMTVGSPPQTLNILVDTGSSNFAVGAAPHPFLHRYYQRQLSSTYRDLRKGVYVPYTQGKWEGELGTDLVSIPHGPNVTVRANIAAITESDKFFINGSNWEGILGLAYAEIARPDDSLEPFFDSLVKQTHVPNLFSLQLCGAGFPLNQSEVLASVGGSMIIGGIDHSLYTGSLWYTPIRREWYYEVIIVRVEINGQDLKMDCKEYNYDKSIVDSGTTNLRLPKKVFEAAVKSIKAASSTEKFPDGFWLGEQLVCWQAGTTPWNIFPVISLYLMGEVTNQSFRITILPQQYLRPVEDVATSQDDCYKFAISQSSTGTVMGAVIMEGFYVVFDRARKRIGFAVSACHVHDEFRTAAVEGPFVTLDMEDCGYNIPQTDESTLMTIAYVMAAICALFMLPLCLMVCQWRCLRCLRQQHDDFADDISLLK
Chain of Voltage-gated inwardly rectifying potassium channel KCNH2 (Q12809 whole entry): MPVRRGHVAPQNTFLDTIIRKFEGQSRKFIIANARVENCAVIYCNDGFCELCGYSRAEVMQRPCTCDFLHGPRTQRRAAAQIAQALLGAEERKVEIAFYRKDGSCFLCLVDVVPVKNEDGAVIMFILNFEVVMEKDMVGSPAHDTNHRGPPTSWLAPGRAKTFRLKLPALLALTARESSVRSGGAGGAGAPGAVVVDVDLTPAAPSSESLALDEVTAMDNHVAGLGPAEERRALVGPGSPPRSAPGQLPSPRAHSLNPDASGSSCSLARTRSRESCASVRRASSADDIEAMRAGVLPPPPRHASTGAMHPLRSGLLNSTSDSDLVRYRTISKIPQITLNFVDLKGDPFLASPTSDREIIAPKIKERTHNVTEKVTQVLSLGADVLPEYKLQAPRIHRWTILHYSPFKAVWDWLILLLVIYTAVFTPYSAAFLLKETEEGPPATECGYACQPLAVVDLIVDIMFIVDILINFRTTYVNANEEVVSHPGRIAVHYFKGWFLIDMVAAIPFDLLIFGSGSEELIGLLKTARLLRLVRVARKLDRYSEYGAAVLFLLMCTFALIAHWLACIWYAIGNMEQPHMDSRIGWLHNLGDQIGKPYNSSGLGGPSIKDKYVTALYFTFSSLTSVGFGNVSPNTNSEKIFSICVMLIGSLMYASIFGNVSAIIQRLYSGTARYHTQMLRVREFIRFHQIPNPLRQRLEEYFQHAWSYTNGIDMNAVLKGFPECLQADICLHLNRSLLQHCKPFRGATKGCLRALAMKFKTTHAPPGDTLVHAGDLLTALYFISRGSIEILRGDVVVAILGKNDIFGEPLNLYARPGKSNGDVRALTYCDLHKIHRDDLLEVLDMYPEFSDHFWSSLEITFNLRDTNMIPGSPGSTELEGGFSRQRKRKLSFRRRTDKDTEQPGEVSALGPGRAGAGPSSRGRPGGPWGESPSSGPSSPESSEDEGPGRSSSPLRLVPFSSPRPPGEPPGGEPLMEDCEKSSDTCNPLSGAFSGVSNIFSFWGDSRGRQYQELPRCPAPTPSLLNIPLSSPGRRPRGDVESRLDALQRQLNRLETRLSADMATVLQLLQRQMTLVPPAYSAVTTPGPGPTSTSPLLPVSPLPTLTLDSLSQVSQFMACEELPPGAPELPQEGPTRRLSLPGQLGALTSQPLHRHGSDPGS
Chain of P-glycoprotein (ABCB1) (P08183 whole entry): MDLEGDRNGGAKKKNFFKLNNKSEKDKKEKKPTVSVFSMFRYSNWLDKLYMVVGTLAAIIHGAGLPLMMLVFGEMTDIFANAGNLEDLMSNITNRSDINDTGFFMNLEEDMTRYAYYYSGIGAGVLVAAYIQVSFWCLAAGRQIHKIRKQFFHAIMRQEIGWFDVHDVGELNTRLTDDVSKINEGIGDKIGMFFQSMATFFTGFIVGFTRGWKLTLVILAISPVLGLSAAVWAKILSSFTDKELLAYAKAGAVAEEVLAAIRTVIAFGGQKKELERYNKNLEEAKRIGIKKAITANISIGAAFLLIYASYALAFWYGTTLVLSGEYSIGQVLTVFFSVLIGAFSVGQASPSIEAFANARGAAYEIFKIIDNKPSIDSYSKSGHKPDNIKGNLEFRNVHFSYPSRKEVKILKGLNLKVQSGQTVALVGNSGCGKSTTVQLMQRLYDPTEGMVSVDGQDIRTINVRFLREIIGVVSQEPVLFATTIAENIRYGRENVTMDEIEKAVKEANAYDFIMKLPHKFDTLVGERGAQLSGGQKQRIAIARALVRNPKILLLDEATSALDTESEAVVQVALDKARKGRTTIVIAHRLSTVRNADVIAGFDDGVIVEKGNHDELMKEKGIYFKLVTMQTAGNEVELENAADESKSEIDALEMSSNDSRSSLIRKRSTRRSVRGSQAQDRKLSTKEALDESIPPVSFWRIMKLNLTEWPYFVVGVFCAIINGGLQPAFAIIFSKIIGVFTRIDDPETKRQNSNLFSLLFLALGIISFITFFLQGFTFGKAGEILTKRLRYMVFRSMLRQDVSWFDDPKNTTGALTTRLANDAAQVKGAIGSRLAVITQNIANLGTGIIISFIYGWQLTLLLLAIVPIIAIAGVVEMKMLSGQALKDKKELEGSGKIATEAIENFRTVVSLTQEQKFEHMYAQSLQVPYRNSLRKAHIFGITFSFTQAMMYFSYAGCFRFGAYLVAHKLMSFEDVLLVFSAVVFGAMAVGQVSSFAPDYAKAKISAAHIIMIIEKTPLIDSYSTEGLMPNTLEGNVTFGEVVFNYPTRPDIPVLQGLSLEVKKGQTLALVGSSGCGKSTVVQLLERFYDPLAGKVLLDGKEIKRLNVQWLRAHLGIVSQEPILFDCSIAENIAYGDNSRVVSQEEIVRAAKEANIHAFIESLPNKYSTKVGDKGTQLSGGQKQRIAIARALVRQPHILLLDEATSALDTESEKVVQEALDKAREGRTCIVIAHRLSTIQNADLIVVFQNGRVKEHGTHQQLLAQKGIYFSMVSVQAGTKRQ

C[C@@]1(c2cc(NC(=O)c3ccc(C#N)cn3)ccc2F)C=CSC(N)=N1 [ATABECESTAT]
inhibition (INH) (Homo sapiens [1]): >80%
inhibition (INH) (Homo sapiens [2]): >80%
inhibition (INH) (Homo sapiens [3]): >80%

C[C@H]1C[C@H]2CSC(N)=N[C@@]2(c2ncc(NC(=O)c3ccc(OC(F)F)cn3)s2)CO1
IC50 (Beta-secretase 1 [4]): > 100 µM
IC50 (Beta-secretase 1 [5]): 13.6 µM
pKa [6]: 7
IC50 [7]: 12 µM
efflux ratio (P-glycoprotein (ABCB1)): 7

CC(F)(F)[C@H]1OC[C@]2(c3cc(NC(=O)c4ccc(C(F)(F)F)cn4)ccc3F)N=C(N)SC[C@H]12
IC50 (Beta-secretase 1 [8]): 0.0119 µM
IC50 (Beta-secretase 1 [9]): 0.00103 µM
IC50 (Beta-secretase 2 [10]): 0.602 µM

NC1=N[C@@]2(c3cc(NC(=O)c4ccc(C(F)(F)F)cn4)ccc3F)CO[C@H](C(F)(F)F)[C@H]2CO1
IC50 (Beta-secretase 1 [11]): 0.0119 µM
IC50 (Beta-secretase 1 [12]): 0.00103 µM
IC50 (Beta-secretase 2 [13]): 0.602 µM
inhibition in vivo at 1 mg/kg (Canis familiaris [14]): 65%
inhibition in vivo at 1 mg/kg (Canis familiaris [15]): 55%

CC#CC(=O)Nc1ccc(F)c(C2(C)Cc3c(F)cncc3C(N)=N2)c1 (configuration not stated)
IC50 (Beta-secretase 1 [16]): 0.054 µM

Cc1cc(C#N)cnc1C(=O)Nc1ccc(F)c([C@@]2(C)N=C(N)C(C)(C)[S@@]3(=O)=NCC[C@@H]23)n1
inhibition in vivo at 30 mg/kg (Mus musculus): 60%

C[C@H]1OC[C@]2(c3cc(NC(=O)c4cnc(C(F)F)cn4)ccc3F)N=C(N)SC[C@H]12 [ELENBECESTAT]
inhibition (INH) (Homo sapiens [17]): 56%
inhibition (INH) (Homo sapiens [18]): 71%
inhibition (INH) (Homo sapiens [19]): 83%
inhibition (INH) (Homo sapiens [20]): 90%
IC50 (Beta-secretase 1 [12]): 0.007 µM

C[C@H]1C[C@H]2CSC(N)=N[C@@]2(c2cc(NC(=O)c3ccc(OC(F)F)cn3)ccc2F)CO1
IC50 (Beta-secretase 1 [5]): < 0.001 µM
pKa [6]: 8.3

C[C@@]1(S(C)(=O)=O)CC[C@@](CF)(c2cc(NC(=O)c3ccc(OCF)cn3)ccc2F)N=C1N
IC50 (Beta-secretase 1 [21]): 0.0022 µM
IC50 (Beta-secretase 2 [22]): 0.0166 µM
inhibition in vivo at 0.16 mg/kg (Canis familiaris [23]): 71%
inhibition in vivo at 0.31 mg/kg (Canis familiaris [24]): 78%
inhibition in vivo at 1.25 mg/kg (Canis familiaris [25]): 89%
IC50 (Beta-secretase 1 [26]): 0.0016 µM

C[C@@]1(c2nc(NC(=O)c3ncc(C(F)(F)F)cc3Cl)ccc2F)CO[C@@](C)(C(F)(F)F)C(N)=N1
inhibition (INH) (Homo sapiens [27]): >90%
